Two compounds from patent US20230330188A1, “PHARMACEUTICAL COMBINATION FOR USE IN THE TREATMENT AND/OR PREVENTION OF DIABETES” (INSPHERO AG, priority 2020, published 2023) can be followed below.

For this assay, the system named is 3D InSight™ Human Islet Microtissues. The experiment in a line: Glucose-stimulated insulin secretion (GSIS) after 13 days of glucolipotoxicity (GLTX) induced islet injury. The class given is cell-based. Conditions: GSIS at 16.7 mM glucose, vs GLTX group.

Consider `COc1ccc(CCN(C)CCCC(C#N)(c2ccc(OC)c(OC)c2)C(C)C)cc1OC` (centres unmarked) [verapamil], for which, where the note is “FIG. 3, long-term (13 days) treatment with 10 μM verapamil alone in glucolipotox medium”, the “glucose-stimulated insulin secretion (GSIS)” value is on record as “has a positive influence on GSIS”.

semaglutide: the “glucose-stimulated insulin secretion (GSIS)” value (FIG. 2, long-term (13 days) treatment with 1 μM semaglutide alone in glucolipotox medium) was “does not improve the GSIS”.
